Source: patent US9376425B2, “Heterocyclic compounds as MDM2 inhibitors for the treatment of cancer” (AMGEN INC., priority 2011, dated 2016)

biological target: T1, human MDM2 (GST-hMDM2 1-188), interaction with biotinylated-p53 (1-83) (Homo sapiens, UniProt Q00987); test: improved HTRF assay (HTRF2 assay), inhibition of HDM2-p53 interaction; format: binding; conditions: 0.2 nM GST-hMDM2, 0.5 nM biotinylated-p53, 100 mM KF
T1 construct: Amino acid residues 1-188 of human MDM2 were expressed; made in house; host or cells: Escherichia coli
T1 sequence (Q00987 1-188): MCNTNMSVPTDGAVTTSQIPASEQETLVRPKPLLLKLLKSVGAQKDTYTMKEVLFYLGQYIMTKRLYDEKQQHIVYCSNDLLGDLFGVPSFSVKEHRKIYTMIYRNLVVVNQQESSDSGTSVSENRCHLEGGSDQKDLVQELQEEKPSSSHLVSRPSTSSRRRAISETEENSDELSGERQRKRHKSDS
Summary of the method: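 GST-hMDM2 preincubated 20 min at RT with serially diluted compound, then biotinylated p53 (1-83, E. coli) added for 60 min. Detection with SA-XLent, anti-GST cryptate and KF, equilibrated >4 h; final DMSO 2%. TR-FRET read; % inhibition calculated relative to nutlin-3.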

Compound	IC50 [nM]
CC(C)(C)S(=O)(=O)C[C@H](C1CC1)N1C(=O)[C@@](C)(CC(=O)O)O[C@H](c2cccc(Cl)c2)[C@H]1c1ccc(Cl)c(F)c1 (single isomer, unassigned) [Example 411, 2-((2R,5R,6R)-4-((S)-2-(tert-Butylsulfonyl)-1-cyclopropylethyl)-5-(4-chloro-3-fluorophenyl)-6-(3-chlorophenyl)-2-methyl-3-oxomorpholin-2-yl)acetic acid or 2-((2S,5R,6R)-4-((S)-2-(tert-butylsulfonyl)-1-cyclopropylethyl)-5-(4-chloro-3-fluorophenyl)-6-(3-chlorophenyl)-2-methyl-3-oxomorpholin-2-yl)acetic acid]	< 1
O=C(O)C[C@@]1(CC(F)(F)F)O[C@H](c2cccc(Cl)c2)[C@@H](c2ccc(Cl)cc2)N([C@H](CN(c2ccccc2F)S(=O)(=O)C2CC2)C2CC2)C1=O (single isomer, unassigned) [Example 333, 2-((2S,5R,6R)-6-(3-Chlorophenyl)-5-(4-chlorophenyl)-4-((S)-1-cyclopropyl-2-(N-(2-fluorophenyl)cyclopropanesulfonamido)ethyl)-3-oxo-2-(2,2,2-trifluoroethyl)morpholin-2-yl)acetic acid or 2-((2R,5R,6R)-6-(3-chlorophenyl)-5-(4-chlorophenyl)-4-((S)-1-cyclopropyl-2-(N-(2-fluorophenyl)cyclopropanesulfonamido)ethyl)-3-oxo-2-(2,2,2-trifluoroethyl)morpholin-2-yl)acetic acid]	199
CC[C@@H](CS(=O)(=O)C(C)(C)C)N1C(=O)[C@@H](Cc2nnnn2C)O[C@H](c2cccc(Cl)c2)[C@H]1c1ccc(Cl)cc1 (single isomer, unassigned) [Example 400, (2R,5R,6R)-4-((S)-1-(tert-Butylsulfonyl)butan-2-yl)-6-(3-chlorophenyl)-5-(4-chlorophenyl)-2-((1-methyl-1H-tetrazol-5-yl)methyl)morpholin-3-one or (2R,5R,6R)-4-((S)-1-(tert-butylsulfonyl)butan-2-yl)-6-(3-chlorophenyl)-5-(4-chlorophenyl)-2-((2-methyl-2H-tetrazol-5-yl)methyl)morpholin-3-one]	37
CC(C)(C)S(=O)(=O)C[C@H](C1CC1)N1C(=O)[C@H](Cc2ccno2)O[C@H](c2cccc(Cl)c2)[C@H]1c1ccc(Cl)cc1 [Example 384, (2S,5R,6R)-4-((S)-2-(tert-Butylsulfonyl)-1-cyclopropylethyl)-6-(3-chlorophenyl)-5-(4-chlorophenyl)-2-(isoxazol-5-ylmethyl)morpholin-3-one]	13
CC[C@@H](CS(=O)(=O)C(C)(C)C)N1C(=O)[C@@H](CCOC)O[C@H](c2cccc(Cl)c2)[C@H]1c1ccc(Cl)cc1 [Example 153, (2R,5R,6R)-4-((S)-1-(tert-butylsulfonyl)butan-2-yl)-6-(3-chlorophenyl)-5-(4-chlorophenyl)-2-(2-methoxyethyl)morpholin-3-one]	59
CC[C@@H](CS(=O)(=O)C(C)(C)C)N1C(=O)[C@@H](CC(=O)NC#N)O[C@H](c2cccc(Cl)c2)[C@H]1c1ccc(Cl)cc1 [Example 345, 2-((2R,5R,6R)-4-((S)-1-(tert-Butylsulfonyl)butan-2-yl)-6-(3-chlorophenyl)-5-(4-chlorophenyl)-3-oxomorpholin-2-yl)-N-cyanoacetamide]	< 1
CC[C@@H](CN(c1ccccc1F)S(=O)(=O)C1CC1)N1C(=O)[C@@H]([C@@H](C)C(=O)O)O[C@H](c2cccc(Cl)c2)[C@H]1c1ccc(Cl)cc1 (single isomer, unassigned) [Example 255]	4
O=C(O)C[C@H]1O[C@H](c2cccc(Cl)c2)[C@@H](c2ccc(Cl)cc2)N([C@H](CN(c2ccccc2F)S(=O)(=O)C2CC2)CC(F)(F)F)C1=O (single isomer, unassigned) [Example 278]	84
CC(C)(C)S(=O)(=O)C[C@H](C1CCC1)N1C(=O)[C@@H](CC(=O)O)O[C@H](c2cccc(Cl)c2)[C@H]1c1ccc(Cl)cc1 (single isomer, unassigned) [Example 270, 2-((2R,5R,6R)-4-((S)-2-(tert-Butylsulfonyl)-1-cyclobutylethyl)-6-(3-chlorophenyl)-5-(4-chlorophenyl)-3-oxomorpholin-2-yl)acetic acid or 2-((2S,5R,6R)-4-((S)-2-(tert-butylsulfonyl)-1-cyclobutylethyl)-6-(3-chlorophenyl)-5-(4-chlorophenyl)-3-oxomorpholin-2-yl)acetic acid]	2
C[C@H]1CCCN1S(=O)(=O)C[C@H](C1CC1)N1C(=O)[C@@](C)(CC(=O)O)O[C@H](c2cccc(Cl)c2)[C@H]1c1ccc(Cl)cc1 (single isomer, unassigned) [Example 336, 2-((2R,5R,6R)-6-(3-Chlorophenyl)-5-(4-chlorophenyl)-4-((S)-1-cyclopropyl-2-(((S)-2-methylpyrrolidin-1-yl)sulfonyl)ethyl)-2-methyl-3-oxomorpholin-2-yl)acetic acid or 2-((2S,5R,6R)-6-(3-chlorophenyl)-5-(4-chlorophenyl)-4-((S)-1-cyclopropyl-2-(((S)-2-methylpyrrolidin-1-yl)sulfonyl)ethyl)-2-methyl-3-oxomorpholin-2-yl)acetic acid]	< 1
CC[C@@H](CS(=O)(=O)C1CCOCC1)N1C(=O)[C@@H](CC(=O)O)O[C@H](c2cccc(Cl)c2)[C@H]1c1ccc(Cl)cc1 (single isomer, unassigned) [Example 186, 2-((2R,5R,6R)-6-(3-chlorophenyl)-5-(4-chlorophenyl)-3-oxo-4-((S)-1-((tetrahydro-2H-pyran-4-yl)sulfonyl)butan-2-yl)morpholin-2-yl)acetic acid or 2-((2S,5R,6R)-6-(3-chlorophenyl)-5-(4-chlorophenyl)-3-oxo-4-((S)-1-((tetrahydro-2H-pyran-4-yl)sulfonyl)butan-2-yl)morpholin-2-yl)acetic acid]	2
CC[C@@H](CS(=O)(=O)C(C)C)N1C(=O)[C@H](CC(=O)O)O[C@H](c2cc(F)cc(Cl)c2)[C@H]1c1ccc(Cl)cc1 (single isomer, unassigned) [Example 125, 2-((2S,5R,6R)-6-(3-Chloro-5-fluorophenyl)-5-(4-chlorophenyl)-4-((S)-1-(isopropylsulfonyl)butan-2-yl)-3-oxomorpholin-2-yl)acetic acid or 2-((2R,5R,6R)-6-(3-Chloro-5-fluorophenyl)-5-(4-chlorophenyl)-4-((S)-1-(isopropylsulfonyl)butan-2-yl)-3-oxomorpholin-2-yl)acetic acid]	11
CC[C@@H](CS(=O)(=O)C(C)(C)C)N1C(=O)[C@@H](CC(=O)O)O[C@H](c2cccc(Cl)c2)[C@H]1c1ccc(Cl)c(F)c1 (single isomer, unassigned) [Example 182, 2-((2R,5R,6R)-4-((S)-1-(tert-butylsulfonyl)butan-2-yl)-5-(4-chloro-3-fluorophenyl)-6-(3-chlorophenyl)-3-oxomorpholin-2-yl)acetic acid or 2-((2S,5R,6R)-4-((S)-1-(tert-butylsulfonyl)butan-2-yl)-5-(4-chloro-3-fluorophenyl)-6-(3-chlorophenyl)-3-oxomorpholin-2-yl)acetic acid]	4
